What all share (type): cell-based
In series [1] the test system is Acinetobacter baumannii ATCC 19606. As to the kind of experiment: Minimum Inhibitory Concentration (MIC) in LB media. Particulars: Acinetobacter baumannii, ATCC19606. An excerpt:
(§1) The compounds of Formula Ia and Formula Ib are of interest due to their potent antibacterial effects. The ability of the compounds disclosed herein to achieve an antibacterial effect may be evaluated with regard to their ability to inhibit the growth of bacterial species like Escherichia coli ATCC 25922, Staphylococcus aureus ATCC 29213, Klebsiella pneumoniae ATCC 13883, Acinetobacter baumannii ATCC 19606, Pseudomonas aeruginosa ATCC 27853 and Enterococcus faecalis ATCC 29212 using an assay based on the following Minimum Inhibitory Concentration (MIC) protocol:
(§2) The test bacteria were grown in Luria Bertani Broth (HIMEDIA M1245), 25 g of the powder was dissolved in 1000 ml distilled water and sterilized by autoclaving at 15 lbs pressure (121° C.) for 20 minutes. The medium sterility was checked by incubating at 37° C. for a period of 48 h. Bacterial cultures that were stored as glycerol stocks at −80° C. were subcultured on LB agar plates to obtain isolated colonies. A single colony of each strain was cultured in LB broth. The cultures were incubated at 37° C., 200 rpm till they reached an optical density (OD at 600 nm) of 0.8 to 1. This log phase culture was diluted in LB broth to a cell number of 5-8*10^5 CFU/mL to be used as inoculum for MIC experiments. Test compounds were dissolved in dimethyl sulfoxide (DMSO) to a stock concentration of 4 mg/ml. A two-fold dilution series of this DMSO stock was prepared in a 96 well V bottom microtitre plate from rows A to H. A 3 μL volume of these dilutions are transferred to a 96-well flat bottom microtitre assay plate. Controls to monitor the effects of DMSO and media sterility were included. Each well was inoculated with 150 μL of the above diluted culture. The plates were incubated at 37° C. overnight in a humidified incubator. The following morning, the plates were read using a Spectrophotometer at 600 nm wavelength. […] The antibacterial activity (MIC) determined against representative gram-positive (S. aureus, E. faecalis) and gram-negative (E. coli, Aeruginosa, K. pneumoniae, and A. baumannii) pathogen are reported Table 1.

Series [2] has as its system Enterococcus faecalis ATCC 29212. Put plainly: Minimum Inhibitory Concentration (MIC) in LB media. The conditions noted are these: Enterococcus faecalis, ATCC29212, read-out: Minimum Inhibitory Concentration E. faecalis ATCC 29212.
Text: as §1, §2

Series [3] deals with Escherichia coli ATCC 25922. Put plainly: Minimum Inhibitory Concentration (MIC) in LB media. Particulars: Escherichia coli, ATCC25922, read-out: Minimum Inhibitory Concentration E. coli ATCC 25922.
Text: as §1, §2

Series [4] deals with Klebsiella pneumoniae ATCC 13883. Put plainly: Minimum Inhibitory Concentration (MIC) in LB media. The conditions noted are these: Klebsiella pneumoniae, ATCC13883, read-out: Minimum Inhibitory Concentration K. pneumoniae ATCC 13883.
Text: as §1, §2

Series [5] concerns Pseudomonas aeruginosa ATCC 27853. Put plainly: Minimum Inhibitory Concentration (MIC) in LB media. Particulars: Pseudomonas aeruginosa, ATCC27853.
Text: as §1, §2

Series [6] has as its system Staphylococcus aureus ATCC 29213. Put plainly: Minimum Inhibitory Concentration (MIC) in LB media. The conditions noted are these: Staphylococcus aureus, ATCC29213, read-out: Minimum Inhibitory Concentration S. aureus ATCC 29213.
Text: as §1, §2

In series [7] the test system is Acinetobacter baumannii. Put plainly: MIC90 determination, clinical strains (CLSI). Particulars: Acinetobacter baumannii, N=38, read-out: MIC 90 Acinetobacter baumannii.
Series [8] concerns Citrobacter freundii. As to the kind of experiment: MIC90 determination, clinical strains (CLSI). The conditions noted are these: Citrobacter freundii, N=19, read-out: MIC 90 Citrobacter freundii.
The subject of series [9] is Enterobacter cloacae. Put plainly: MIC90 determination, clinical strains (CLSI). Particulars: Enterobacter cloacae, N=26, read-out: MIC 90 Enterobacter cloacae.
For series [10], the system named is Escherichia coli. Put plainly: MIC90 determination, clinical strains (CLSI). The conditions noted are these: Escherichia coli, N=38, read-out: MIC 90 Escherichia coli.
Series [11] relates to Klebsiella aerogenes, K. oxytoca. As to the kind of experiment: MIC90 determination, clinical strains (CLSI). Particulars: N=17, read-out: MIC 90 Klebsiella aerogenes, K. oxytoca.
The test system of series [12] is Klebsiella pneumoniae. Put plainly: MIC90 determination, clinical strains (CLSI). Particulars: Klebsiella pneumoniae, N=86, read-out: MIC 90 Klebsiella pneumoniae.
Series [13] has as its system Morganella morganii. As to the kind of experiment: MIC90 determination, clinical strains (CLSI). The conditions noted are these: Morganella morganii, N=11, read-out: MIC 90 Morganella morganii.
Series [14] concerns Proteus mirabilis. As to the kind of experiment: MIC90 determination, clinical strains (CLSI). The conditions noted are these: Proteus mirabilis, N=12, read-out: MIC 90 Proteus mirabilis.
Series [15] deals with Providencia rettgeri, P. stuartii. Put plainly: MIC90 determination, clinical strains (CLSI). Particulars: N=12, read-out: MIC 90 Providencia rettgeri, P. stuartii.
The subject of series [16] is Pseudomonas aeruginosa. Put plainly: MIC90 determination, clinical strains (CLSI). The conditions noted are these: Pseudomonas aeruginosa, N=34, read-out: MIC 90 Pseudomonas aeruginosa.
For series [17], the system named is Serratia marcescens. As to the kind of experiment: MIC90 determination, clinical strains (CLSI). The conditions noted are these: Serratia marcescens, N=15, read-out: MIC 90 Serratia marcescens.
Series [18] concerns CHO-K1 cells. Put plainly: In-vitro micronucleus assay. The conditions noted are these: for % (in-vitro micronucleus assay) / In vitro micronucleus forming concentration: Chinese hamster. The procedure: Genetic toxicology studies were performed on the compounds of the present disclosure to assess their ability to cause DNA damage. The in-vitro micronucleus assay measured the concentration (μM) of the compound at which micronuclei formation occurred. A micronuclei formation at lower concentration indicates more genetic damage or genotoxicity.
Micronucleus formation is a hallmark of genotoxicity, and the micronucleus assay is an important component of genotoxicity screening. Micronuclei are chromatin-containing bodies that represent fragments or even whole chromosomes that were not incorporated into a daughter cell nucleus at mitosis. The purpose of the assay is to detect agents that induce chromosome damage leading to the induction of micronuclei in interphase cells. The in vitro micronucleus assay was conducted in CHO-K1 cells according to the procedure described by Diaz, D et al [Mutat Res. 630(1-2):1-13. […] The formation of the micronucleus is identified by image-based high content analysis from binucleated cells.

Series [19] concerns the target hERG potassium channel (Homo sapiens (Human), UniProt Q12809). As to the kind of experiment: hERG inhibition assay (Qpatch HTX automated electrophysiology). The conditions noted are these: CHO cell line expressing hERG, whole-cell patch clamp. The procedure: Electrophysiological recordings were made from a Chinese Hamster Ovary cell line stably expressing the full-length hERG potassium channel. Single cell ionic currents were measured in whole-cell patch clamp configuration at room temperature (21-23° C.) using the Qpatch HTX platform (Sophion). Intracellular solution contained (mM): 120 KF, 20 KCl, 10 EGTA, 10 HEPES and was buffered to pH 7.3. […] Cells were clamped at a holding potential of −80 mV. Cells were stepped to +20 mV for 2 s then −40 mV for 3 s before returning to the holding potential. […] Compounds were then incubated for 2 minutes prior to a second measurement of ion channel current using an identical pulse train.
(In general: Block of hERG is tested as a sign of cardiac risk.)

≈ marks a conversion by molar mass, not a printed value.

The values below come from patent publication US20250136618A1, “ANTIBIOTIC PYRAZINOTHIAZINE DERIVATIVES AND PROCESS OF PREPARATION THEREOF” (Bugworks Research India PVT Ltd, priority 2021, published 2025).

Usually IC50 stands for the point on the concentration scale where inhibition reaches its midpoint. High values mean lower potency, low ones higher potency.

Sequence of hERG potassium channel (Q12809 whole entry): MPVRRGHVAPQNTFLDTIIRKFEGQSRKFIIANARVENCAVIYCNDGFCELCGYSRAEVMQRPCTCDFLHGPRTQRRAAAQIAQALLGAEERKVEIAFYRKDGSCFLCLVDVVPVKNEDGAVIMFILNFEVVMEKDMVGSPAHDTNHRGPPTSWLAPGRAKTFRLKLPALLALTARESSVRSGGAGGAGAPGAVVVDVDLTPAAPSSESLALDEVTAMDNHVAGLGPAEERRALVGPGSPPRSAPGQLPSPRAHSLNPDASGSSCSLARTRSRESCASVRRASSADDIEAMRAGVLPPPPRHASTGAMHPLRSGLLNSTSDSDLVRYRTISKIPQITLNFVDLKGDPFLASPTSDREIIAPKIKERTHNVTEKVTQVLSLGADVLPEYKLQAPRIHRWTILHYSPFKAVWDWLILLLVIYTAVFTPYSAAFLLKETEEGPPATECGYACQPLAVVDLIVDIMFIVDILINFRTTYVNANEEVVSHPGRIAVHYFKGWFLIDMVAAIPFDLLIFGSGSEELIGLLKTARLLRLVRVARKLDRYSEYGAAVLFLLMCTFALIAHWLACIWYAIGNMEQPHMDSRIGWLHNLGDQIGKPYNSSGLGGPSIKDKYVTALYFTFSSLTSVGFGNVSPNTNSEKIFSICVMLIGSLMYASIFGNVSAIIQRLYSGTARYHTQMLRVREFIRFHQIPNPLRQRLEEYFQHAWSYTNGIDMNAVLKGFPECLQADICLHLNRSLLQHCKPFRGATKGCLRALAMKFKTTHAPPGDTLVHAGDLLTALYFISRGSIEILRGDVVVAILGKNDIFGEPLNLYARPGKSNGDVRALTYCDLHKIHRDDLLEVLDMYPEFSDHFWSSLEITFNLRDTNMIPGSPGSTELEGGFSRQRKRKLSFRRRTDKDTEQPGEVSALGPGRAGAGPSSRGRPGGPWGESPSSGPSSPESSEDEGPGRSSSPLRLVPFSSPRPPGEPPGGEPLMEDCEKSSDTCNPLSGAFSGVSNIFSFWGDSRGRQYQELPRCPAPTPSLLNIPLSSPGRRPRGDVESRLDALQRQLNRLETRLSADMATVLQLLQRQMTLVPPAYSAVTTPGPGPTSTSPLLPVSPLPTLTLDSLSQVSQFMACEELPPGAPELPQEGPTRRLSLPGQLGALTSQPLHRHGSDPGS

On to `Cn1c(=O)cnc2ccc(OCCNC[C@H]3CN(c4cnc5c(n4)NC(=O)CS5)C(=O)O3)nc21` [Compound 1, (S)-5-(((2-((4-Methyl-3-oxo-3,4-dihydropyrido[2,3-b]pyrazin-6-yl)oxy)ethyl)amino)methyl)-3-(3-oxo-3,4-dihydro-2H-pyrazino[2,3-b][1,4]thiazin-6-yl)oxazolidin-2-one, reference compound], for which the MIC in series [1] was 0.03 µg/mL (≈ 0.0619 µM); in series [2], 0.1 µg/mL (≈ 0.206 µM); in series [3], 0.03 µg/mL (≈ 0.0619 µM); in series [4] it was 0.03 µg/mL (≈ 0.0619 µM); in [5], 0.5 µg/mL (≈ 1.03 µM); in series [6], below 0.03 µg/mL. The MIC90 stood at 0.5 µg/mL (≈ 1.03 µM) in series [7]; 2 µg/mL (≈ 4.13 µM) in series [8]; 4 µg/mL (≈ 8.26 µM) in series [9]; 0.5 µg/mL (≈ 1.03 µM) in series [10]; 2 µg/mL (≈ 4.13 µM) in [11]; 4 µg/mL (≈ 8.26 µM) in [12]. The MIC90 stood at 1 µg/mL (≈ 2.06 µM) in series [13]; 4 µg/mL (≈ 8.26 µM) in [14]; 2 µg/mL (≈ 4.13 µM) in series [15]; 2 µg/mL (≈ 4.13 µM) in series [16]; 8 µg/mL (≈ 16.5 µM) in [17]. For the same compound, the “% (in-vitro micronucleus assay)” value in [18] stood at 1.58%. Besides, the “In vitro micronucleus forming concentration” value in series [18] came to 32 µM. This compound showed an IC50 in series [19] of 58 µM.

On to `Cn1c(=O)ccc2ncc(OCCNC[C@H]3CN(c4cnc5c(n4)NC(=O)CS5)C(=O)O3)nc21` [Compound 2, (S)-5-(((2-((5-Methyl-6-oxo-5,6-dihydropyrido[2,3-b]pyrazin-3-yl)oxy)ethyl)amino)methyl)-3-(3-oxo-3,4-dihydro-2H-pyrazino[2,3-b][1,4]thiazin-6-yl)oxazolidin-2-one, reference compound], for which the MIC was 0.03 µg/mL (≈ 0.0619 µM) in series [1]; 0.03 µg/mL (≈ 0.0619 µM) in series [2]; 0.03 µg/mL (≈ 0.0619 µM) in [3]; 0.03 µg/mL (≈ 0.0619 µM) in series [4]; 0.5 µg/mL (≈ 1.03 µM) in [5]; below 0.03 µg/mL in series [6]. The MIC90 was determined as 2 µg/mL (≈ 4.13 µM) in series [7]; 1 µg/mL (≈ 2.06 µM) in series [8]; 8 µg/mL (≈ 16.5 µM) in series [9]; 1 µg/mL (≈ 2.06 µM) in series [10]; 2 µg/mL (≈ 4.13 µM) in series [11]; 4 µg/mL (≈ 8.26 µM) in series [12]. The MIC90 in series [13] came out at 1 µg/mL (≈ 2.06 µM); in series [14] it was 4 µg/mL (≈ 8.26 µM); in [15] it was 4 µg/mL (≈ 8.26 µM); in series [16] it was 4 µg/mL (≈ 8.26 µM); in series [17], 16 µg/mL (≈ 33 µM). Moreover, the “% (in-vitro micronucleus assay)” value in [18] turned out to be 1.67%. Further, the “In vitro micronucleus forming concentration” value in series [18] came to 8 µM. The IC50 in series [19] is above 150 µM.

With `Cn1c(=O)cnc2ccc(OCCNC[C@@H]3CN(c4cnc5c(n4)NC(=O)CS5)C(=O)O3)nc21` [Compound 3, (R)-5-(((2-((4-methyl-3-oxo-3,4-dihydropyrido[2,3-b]pyrazin-6-yl)oxy)ethyl)amino)methyl)-3-(3-oxo-3,4-dihydro-2H-pyrazino[2,3-b][1,4]thiazin-6-yl)oxazolidin-2-one], the MIC in [1] was 0.03 µg/mL (≈ 0.0619 µM); in [2], 0.03 µg/mL (≈ 0.0619 µM); in series [3], 0.03 µg/mL (≈ 0.0619 µM); in [4] it was 0.03 µg/mL (≈ 0.0619 µM); in series [5] it was 0.5 µg/mL (≈ 1.03 µM); in [6], below 0.015 µg/mL. Also, the MIC90 is 0.5 µg/mL (≈ 1.03 µM) in series [7]; 1 µg/mL (≈ 2.06 µM) in [8]; 8 µg/mL (≈ 16.5 µM) in [9]; 0.5 µg/mL (≈ 1.03 µM) in series [10]; 4 µg/mL (≈ 8.26 µM) in [11]; 4 µg/mL (≈ 8.26 µM) in [12]. In addition, the MIC90 in series [13] stood at 1 µg/mL (≈ 2.06 µM); in series [14] it was 4 µg/mL (≈ 8.26 µM); in [15] it was 2 µg/mL (≈ 4.13 µM); in [16], 4 µg/mL (≈ 8.26 µM); in series [17], 4 µg/mL (≈ 8.26 µM). Moreover, the “genotoxicity risk (in words)” value in series [18] is listed as “completely devoid of any genotoxicity risk”. Further, in series [18], the “micronucleus formation (in words)” value was “did not induce micronucleus formation”. Also, the “% (in-vitro micronucleus assay)” value in [18] worked out at 0.81%. For the same compound, in [18], the “In vitro micronucleus forming concentration” value is above 500 µM.

On to `Cn1c(=O)ccc2ncc(OCCNC[C@@H]3CN(c4cnc5c(n4)NC(=O)CS5)C(=O)O3)nc21` [Compound 4, (R)-5-(((2-((5-methyl-6-oxo-5,6-dihydropyrido[2,3-b]pyrazin-3-yl)oxy)ethyl)amino)methyl)-3-(3-oxo-3,4-dihydro-2H-pyrazino[2,3-b][1,4]thiazin-6-yl)oxazolidin-2-one], for which the MIC in series [1] worked out at 0.03 µg/mL (≈ 0.0619 µM); in [2], 0.06 µg/mL (≈ 0.124 µM); in series [3] it was 0.06 µg/mL (≈ 0.124 µM); in series [4], 0.06 µg/mL (≈ 0.124 µM); in series [5], 0.5 µg/mL (≈ 1.03 µM); in [6], 0.015 µg/mL (≈ 0.031 µM). Besides, the MIC90 in series [7] came out at 1 µg/mL (≈ 2.06 µM); in [8], 2 µg/mL (≈ 4.13 µM); in series [9] it was 8 µg/mL (≈ 16.5 µM); in series [10], 0.5 µg/mL (≈ 1.03 µM); in [11] it was 4 µg/mL (≈ 8.26 µM); in series [12], 8 µg/mL (≈ 16.5 µM). Moreover, the MIC90 amounted to 2 µg/mL (≈ 4.13 µM) in series [13]; 4 µg/mL (≈ 8.26 µM) in series [14]; 2 µg/mL (≈ 4.13 µM) in series [15]; 4 µg/mL (≈ 8.26 µM) in series [16]; 16 µg/mL (≈ 33 µM) in [17]. In addition, the “% (in-vitro micronucleus assay)” value in series [18] came to 0.76%. For the same compound, the IC50 in series [19] is above 300 µM.
